Common to all, as to format: in vivo
In series [1] the test system is Polygonum convolvulus (POLCO). Put plainly: Pre-emergence herbicidal action against POLCO. The note with it: dosage 320 g/ha. Summed up: (§1)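 Pre-emergence soil-surface spray of compound, formulated as wettable powder or emulsion concentrate, in aqueous suspension or emulsion with 0.5% additive (600 l/ha; rate 320 g/ha or less). Activity rated visually after roughly 3 weeks in the greenhouse as a percentage of untreated controls, 0% meaning no difference.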

Series [2] deals with Alopecurus myosuroides (ALOMY). Put plainly: Post-emergence herbicidal action against ALOMY. The note with it: visual rating about 3 weeks after treatment vs untreated controls (100% = plants have died, 0% = like control plants). Summed up:
(§2)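 Rates were 320 g/ha or below, applied as aqueous WP/EC spray with 0.5% additive (600 l/ha) onto one-leaf-stage plants. About 3 weeks later in the greenhouse, damage was scored visually against untreated plants on a 0–100% scale, where 100% means plants died.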

Series [3] has as its system Amaranthus retroflexus (AMARE). The series can be described thus: Post-emergence herbicidal action against AMARE. The note with it: 80 g/ha, visual rating about 3 weeks after treatment vs untreated controls (100% = plants have died, 0% = like control plants). Summed up: as §2
For series [4], the system named is Setaria viridis (SETVI). The series can be described thus: Post-emergence herbicidal action against SETVI. Summed up: as §2
Series [5] concerns Pharbitis purpurea (PHBPU). Put plainly: Pre-emergence herbicidal action against PHBPU. The note with it: dosage 320 g/ha. Put shortly: as §1
The test system of series [6] is Matricaria inodora (MATIN). The series can be described thus: Pre-emergence herbicidal action against MATIN. Put shortly:
as §1

For series [7], the system named is Verconica persica (VERPE). Put plainly: Pre-emergence herbicidal action against VERPE. The note with it: dosage 320 g/ha. Put shortly:
as §1

Series [8] has as its system Verconica persica (VERPE). The series can be described thus: Post-emergence herbicidal action against VERPE. Summed up:
as §2

Series [9] concerns Matricaria inodora (MATIN). Put plainly: Post-emergence herbicidal action against MATIN. The note with it: dosage 80 g/ha. Summed up: as §2
The test system of series [10] is Pharbitis purpurea (PHBPU). Put plainly: Post-emergence herbicidal action against PHBPU. Summed up: as §2
For series [11], the system named is Abutilon theophrasti (ABUTH). The series can be described thus: Post-emergence herbicidal action against ABUTH. The note with it: visual rating about 3 weeks after treatment vs untreated controls (100% = plants have died, 0% = like control plants). Put shortly:
as §2

Series [12] has as its system Amaranthus retroflexus (AMARE). The series can be described thus: Pre-emergence herbicidal action against AMARE. The note with it: visual scoring after about 3 weeks vs untreated controls. Put shortly:
as §1

For series [13], the system named is Alopecurus myosuroides (ALOMY). Put plainly: Pre-emergence herbicidal action against ALOMY. The note with it: scored visually after about 3 weeks, 100% = plants have died. Put shortly: as §1
In another series the test system is Zea mays (ZEAMX). The note with it: 20 g/ha, ZEAMX, effect in comparison to untreated controls. Summed up: (§3)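 Visual rating (% effect vs. untreated plants; 100% = plant death) made about 3 weeks after treatment. Plants had been sprayed at one-leaf stage, 2–3 weeks post-sowing, with aqueous WP/EC preparations containing 0.5% additive, 600 l/ha water volume; a, b, c mark dose levels.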

The test system of the next series is Oryza sativa (ORYSA). The note with it: crop plant compatibility. Summed up:
as §3

Series [14] relates to Echinochloa crus-galli (ECHCG). The series can be described thus: Post-emergence herbicidal action against ECHCG. Put shortly:
as §2

The test system of series [15] is Setaria viridis (SETVI). Put plainly: Pre-emergence herbicidal action against SETVI. Put shortly: as §1
The test system of series [16] is Viola tricolor (VIOTR). Put plainly: Pre-emergence herbicidal action against VIOTR. The note with it: 320 g/ha, Viola tricolor. Put shortly:
as §1

Series [17] concerns Lolium rigidum (LOLRI). The series can be described thus: Pre-emergence herbicidal action against LOLRI. The note with it: dosage 320 g/ha. Summed up: as §1
Series [18] concerns Polygonum convolvulus (POLCO). Put plainly: Post-emergence herbicidal action against POLCO. Summed up:
as §2

The test system of series [19] is Echinochloa crus-galli (ECHCG). The series can be described thus: Pre-emergence herbicidal action against ECHCG. Summed up: as §1
Series [20] relates to Avena fatua (AVEFA). The series can be described thus: Post-emergence herbicidal action against AVEFA. The note with it: visual rating about 3 weeks after treatment. Put shortly:
as §2

Series [21] has as its system Lolium rigidum (LOLRI). Put plainly: Post-emergence herbicidal action against LOLRI. Summed up:
as §2

Series [22] relates to Avena fatua (AVEFA). The series can be described thus: Pre-emergence herbicidal action against AVEFA. The note with it: visual scoring after about 3 weeks vs untreated controls. Put shortly: as §1
The subject of series [23] is Viola tricolor (VIOTR). Put plainly: Post-emergence herbicidal action against VIOTR. The note with it: 320 g/ha. Summed up:
as §2

Series [24] relates to Digitaria sanguinalis (DIGSA). The series can be described thus: Post-emergence herbicidal action against DIGSA. The note with it: visual rating about 3 weeks after treatment. How it is done: Seeds of monocotyledonous and dicotyledonous weeds and crop plants are placed in sandy loam in plastic or organic planting pots, covered with soil and cultivated in a greenhouse under controlled growth conditions. 2 to 3 weeks after sowing, the test plants are treated at the one-leaf stage. The compounds of the invention, formulated in the form of wettable powders (WP) or as emulsion concentrates (EC), are then sprayed onto the green parts of the plants as aqueous suspension or emulsion with addition of 0.5% additive at a water application rate of 600 l/ha (converted). After the test plants have been kept in the greenhouse under optimum growth conditions for about 3 weeks, the activity of the preparations is rated visually in comparison to untreated controls. For example, 100% activity=the plants have died, 0% activity=like control plants.
Tables B1 to B13 below show the effects of selected compounds of the general formula (I) according to Table 1 on various harmful plants and at an application rate corresponding to 320 g/ha or lower, which were obtained by the experimental procedure mentioned above. The appendices “a”, “b” and “c” give differentiation by dosage used with otherwise the same harmful plants tested.

Setting [25] is: 20 g/ha, effect vs untreated controls.
[26] abbreviates: 80 g/ha, effect in comparison to untreated controls.

Structures are written as SMILES. Like-named read-outs stand apart in the source and are kept apart here.

On to `CCOC(=O)COc1nn(-c2ccccn2)c(-c2ccc(F)nc2)c1Cl` [Example I-100], for which, in series [1], the “Pre-emergence action against POLCO in %” value is given as 90%. Also, the “Post-emergence action against ALOMY in %” value in series [2] (80 g/ha) amounted to 100%. Moreover, in series [3], the “Post-emergence action against AMARE in %” value stood at 90%. In the series on Setaria viridis (SETVI) [4] (dosage 80 g/ha), the “Post-emergence action against SETVI in %” value worked out at 80%. Moreover, the “Pre-emergence action against PHBPU in %” value in series [5] stood at 90%. Besides, the “Pre-emergence action against MATIN in %” value in series [6] (dosage 80 g/ha) and in series [6] (dosage 320 g/ha) was 80% throughout. The “Pre-emergence action against VERPE in %” value in series [7] was found to be 100%. The “Post-emergence action against VERPE in %” value in series [8] (dosage 80 g/ha) is on record as 80%. In addition, the “Post-emergence action against MATIN in %” value in series [9] turned out to be 90%. In addition, in [10] (dosage 80 g/ha), the “Post-emergence action against PHBPU in %” value is given as 90%. For the same compound, the “Post-emergence action against ABUTH in %” value in series [11] (80 g/ha) is reported as 80%. Also, the “Pre-emergence action against AMARE in %” value in series [12] (80 g/ha) was found to be 90%; in series [12] (320 g/ha), 100%. Also, the “Pre-emergence action against ALOMY” value in series [13] (80 g/ha) and in series [13] (320 g/ha) was 100% in each case. For the same compound, the “Post-emergence action against ZEAMX in % (crop plant compatibility)” value with Zea mays (ZEAMX) amounted to 10%. Moreover, in the series on Oryza sativa (ORYSA) (setting [25]), the “Post-emergence action against ORYSA in %” value was found to be 0%. In addition, in series [14] (dosage 80 g/ha), the “Post-emergence action against ECHCG in %” value is reported as 90%. In addition, the figures for the “Pre-emergence action against SETVI in %” value in the series on Setaria viridis (SETVI) [15] (dosage 80 g/ha) and in the series on Setaria viridis (SETVI) [15] (dosage 320 g/ha) were 90% and 100%, respectively. For the same compound, the “Pre-emergence action against VIOTR in %” value in the series on Viola tricolor (VIOTR) [16] was 90%. For the same compound, the “Pre-emergence action against LOLRI in %” value in the series on Lolium rigidum (LOLRI) [17] was 100%. In addition, the “Post-emergence action against POLCO in %” value in series [18] (dosage 80 g/ha) is reported as 90%. The “Pre-emergence action against ECHCG in %” value was 80% in series [19] (dosage 80 g/ha) and 100% in series [19] (dosage 320 g/ha). Moreover, in the series on Avena fatua (AVEFA) [20] (80 g/ha), the “Post-emergence action against AVEFA in %” value amounted to 100%. Besides, the “Post-emergence action against LOLRI in %” value in the series with Lolium rigidum (LOLRI) [21] (dosage 80 g/ha) is recorded as 80%. The “Pre-emergence action against AVEFA in %” value with Avena fatua (AVEFA) [22] (80 g/ha) is recorded as 80%; in the series with Avena fatua (AVEFA) [22] (320 g/ha), 90%.

As for `COC(=O)C(C)OC(=O)C(C)Oc1nn(-c2ccccn2)c(-c2ccc(F)nc2)c1Br` (stereo not drawn) [Example I-288], the “Post-emergence action against ALOMY in %” value in [2] (320 g/ha) is given as 90%. In the series with Viola tricolor (VIOTR) [23], the “Post-emergence action against VIOTR in %” value came out at 80%. Moreover, the “Post-emergence action against SETVI in %” value with Setaria viridis (SETVI) [4] (dosage 80 g/ha) and in the series with Setaria viridis (SETVI) [4] (dosage 320 g/ha) was 90% throughout. Further, the “Post-emergence action against DIGSA in %” value in [24] (80 g/ha) is given as 80%; in series [24] (320 g/ha) it was 90%. Also, the “Post-emergence action against VERPE in %” value in series [8] (320 g/ha, VERPE) came out at 80%; in series [8] (dosage 80 g/ha), 80%. The “Post-emergence action against PHBPU in %” value in [10] (dosage 80 g/ha) amounted to 80%; in series [10] (dosage 320 g/ha) it was 90%. In addition, the “Post-emergence action against ORYSA in %” value in the series with Oryza sativa (ORYSA) (setting [25]) is recorded as 0%; with Oryza sativa (ORYSA) (setting [26]), 10%. The “Post-emergence action against ECHCG in %” value in series [14] (dosage 320 g/ha) came to 80%. Besides, in series [18] (dosage 320 g/ha), the “Post-emergence action against POLCO in %” value amounted to 80%. In addition, the figures for the “Post-emergence action against AVEFA in %” value in the series with Avena fatua (AVEFA) [20] (80 g/ha) and with Avena fatua (AVEFA) [20] (320 g/ha) were 80% and 90%, respectively. Further, the “Post-emergence action against LOLRI in %” value in the series on Lolium rigidum (LOLRI) [21] (dosage 80 g/ha) and in the series on Lolium rigidum (LOLRI) [21] (dosage 320 g/ha) was 80% each time.

With `C[C@@H](Oc1nn(-c2ccccn2)c(-c2ccc(F)nc2)c1Br)C(=O)O` [Example I-260], in series [2] (320 g/ha), the “Post-emergence action against ALOMY in %” value is 90%. Moreover, the “Post-emergence action against SETVI in %” value in the series with Setaria viridis (SETVI) [4] (dosage 320 g/ha) was 90%. Further, the “Post-emergence action against DIGSA in %” value in [24] (80 g/ha) and in series [24] (320 g/ha) was 90% throughout. The “Post-emergence action against VERPE in %” value in [8] (320 g/ha, VERPE) is recorded as 80%. In addition, the “Post-emergence action against PHBPU in %” value in [10] (dosage 320 g/ha) amounted to 80%. Besides, in series [11] (320 g/ha), the “Post-emergence action against ABUTH in %” value is given as 80%. Further, the “Post-emergence action against ORYSA in %” value with Oryza sativa (ORYSA) (setting [25]) and in the series with Oryza sativa (ORYSA) (setting [26]) was 10% in each case. In addition, in series [14] (dosage 320 g/ha), the “Post-emergence action against ECHCG in %” value was found to be 90%. The “Post-emergence action against POLCO in %” value in [18] (dosage 80 g/ha) and in series [18] (dosage 320 g/ha) was 80% each time. Further, the “Post-emergence action against AVEFA in %” value in the series on Avena fatua (AVEFA) [20] (80 g/ha) and in the series with Avena fatua (AVEFA) [20] (320 g/ha) was 80% throughout. The “Post-emergence action against LOLRI in %” value with Lolium rigidum (LOLRI) [21] (dosage 320 g/ha) is listed as 80%.
